5 compounds from US20080021098A1, “Antifungal Compositions” (GIVAUDAN SA, priority 2004, published 2008) can be followed below.

This experiment concerns Cladosporium sphaerospermum IK-65 on cotton fabrics / Cladosporium sphaerospermum MTL on plaster. The experiment in a line: Minimal headspace level required for antifungal activity (olfactometer, constant fragrance vapour). It counts as cell-based. The settings on record: test phase of 7 days; for Effect on fungal growth: at the headspace level of the same line; for Headspace level required to inhibit fungal growth: constant vapour concentration. Here is the method: In order to determine the effective level of the anti-mould fragrance compounds needed for anti-mould vapour phase activity, an olfactometer is constructed that allows delivery to the fungal growth substrate of a constant concentration of fragrance vapour. A stream of nitrogen is saturated with the fragrance component, and the fragrance-saturated gas is then diluted with water saturated air at different ratios. This mixture is then blown continuously through enclosed acryl-glass boxes and the headspace is measured by sampling 1 ml gas sample with subsequent analysis in the gas chromatograph. Once a steady state in the acryl-glass box is reached (usually within 1-3 days), a fungal inoculum on a relevant substrate is added to the box, and fungal growth during a test phase of 7 days is evaluated.
The following relevant substrate—inoculum combinations were used: • (a) White pieces of cotton fabrics were soaked with a solution of potato dextrose broth diluted to a final concentration of 5% containing spores from the fungal test strain Cladosporium sphaerospermum IK-65 diluted to a final density corresponding to an optical density at 600 nm of 0.01. The test strain IK 65 was isolated from moist fabrics having fungal off odors, and it is a typical strain growing on fabrics as substrate. • (b) White plaster used for fixing ceramic tiles in bathrooms was spread homogenously on the back of 35 mm Petri dishes. On each Petri dish, 160 μl of a fungal inoculum was evenly spread. It contained potato dextrose broth diluted to a final concentration of 50% and spores from the fungal test strain Cladosporium sphaerospermum MTL diluted to a final density corresponding to an optical density at 600 nm of 0.004. The test strain MTL was isolated from a bathroom with vigorous mould growth on the plaster between tiles.

The structures appear in SMILES notation.

With `CC1=CC(C)C(C=O)CC1` (stereo not shown) [1-carboxaldehyde-2,4-dimethyl-cyclohex-3-en], the “Effect on fungal growth” value was “over 90% inhibition” and the “Headspace level required to inhibit fungal growth” value turned out to be 21 µg/L.

`COc1ccc(CC(C)C=O)cc1` (stereo not shown) [3-(4-methoxyphenyl)-2-methyl-propanal]: the “Effect on fungal growth” value is “complete inhibition” and the “Headspace level required to inhibit fungal growth” value was 1.9 µg/L.

On to `CC1=CCC(C(C)CCO)CC1` (stereo not shown) [3-(4-methyl-3-cyclohexenyl)-butanol], for which the “Effect on fungal growth” value is listed as 80% inhibition and the “Headspace level required to inhibit fungal growth” value came out at 4.5 µg/L.

As to `COc1ccc(C=O)cc1` [4-methoxy-benzaldehyde], the “Effect on fungal growth” value is “over 90% inhibition” and the “Headspace level required to inhibit fungal growth” value was found to be 7.5 µg/L.

With `CC1(C)CCCC2=C1CC(C=O)CC2` (stereo not shown) [8,8-Dimethyl-1,2,3,4,5,6,7,8-octahydro-naphthalene-2-carbaldehyde], the “Effect on fungal growth” value is listed as “complete inhibition” and the “Headspace level required to inhibit fungal growth” value stood at 4.9 µg/L.
